Columns and labels:
CD73 [1] = biological target: T1, CD73 (Homo sapiens (Human), UniProt P21589); test: MDA-MB-231 Cell Based CD73 Activity Assay (DMEM); conditions: MDA-MB-231-GFP cells, DMEM medium with 10% human plasma, 200 uM AMP
CD73 [2] = biological target: T1, CD73; format: biochemical; conditions: 1 mM NaH2PO4 in enzyme buffer, CD73 0.3 nM, AMP 15 uM

T1 sequence (P21589 27-574): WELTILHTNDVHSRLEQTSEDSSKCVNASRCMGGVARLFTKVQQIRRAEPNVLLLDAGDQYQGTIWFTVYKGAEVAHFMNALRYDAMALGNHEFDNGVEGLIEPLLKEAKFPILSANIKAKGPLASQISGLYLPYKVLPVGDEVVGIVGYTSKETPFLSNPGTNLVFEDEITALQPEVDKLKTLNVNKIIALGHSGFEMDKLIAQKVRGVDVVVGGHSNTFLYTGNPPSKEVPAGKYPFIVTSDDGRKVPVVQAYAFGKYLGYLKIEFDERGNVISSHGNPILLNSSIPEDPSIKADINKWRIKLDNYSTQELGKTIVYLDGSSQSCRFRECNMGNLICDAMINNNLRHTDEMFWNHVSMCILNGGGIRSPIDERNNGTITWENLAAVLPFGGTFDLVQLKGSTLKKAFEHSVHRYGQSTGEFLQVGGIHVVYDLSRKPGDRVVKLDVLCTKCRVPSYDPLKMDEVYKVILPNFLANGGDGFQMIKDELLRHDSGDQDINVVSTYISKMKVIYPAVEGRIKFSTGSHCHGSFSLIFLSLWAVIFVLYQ

Compound | EC50 (CD73 [1]) | IC50 (CD73 [2])
N#Cc1cc(F)c([C@H]2C[C@@H]2c2cc(-c3c[nH]c(=O)[nH]c3=O)nn3c(F)cnc23)cc1F [Example 573, 4-((1S,2S)-2-(6-(2,4-dioxo-1,2,3,4-tetrahydropyrimidin-5-yl)-3-fluoroimidazo[1,2-b]pyridazin-8-yl)cyclopropyl)-2,5-difluorobenzonitrile] | 7.46 nM | 1.21 nM
O=c1[nH]cc(-c2cc(N3CC4CC(C3)C4(F)F)c3nccn3n2)c(=O)[nH]1 [Example 575, 5-(8-(6,6-difluoro-3-azabicyclo[3.1.1]heptan-3-yl)imidazo[1,2-b]pyridazin-6-yl)pyrimidine-2,4(1H,3H)-dione] | 142 nM | 57.1 nM
O=c1[nH]cc(-c2cc([C@H]3C[C@@H]3c3ccc(Cl)cn3)c3ncc(F)n3n2)c(=O)[nH]1 [Example 584, 5-(8-((1S,2S)-2-(5-chloropyridin-2-yl)cyclopropyl)-3-fluoroimidazo[1,2-b]pyridazin-6-yl)pyrimidine-2,4(1H,3H)-dione] | 2.98 nM | 0.91 nM
O=c1[nH]cc(-c2cc([C@H]3C[C@@H]3c3ncc(Cl)cc3F)c3ncc(F)n3n2)c(=O)[nH]1 [Example 588, 5-(8-((1S,2S)-2-(5-chloro-3-fluoropyridin-2-yl)cyclopropyl)-3-fluoroimidazo[1,2-b]pyridazin-6-yl)pyrimidine-2,4(1H,3H)-dione] | 2.33 nM | 0.69 nM
O=c1[nH]cc(-c2cc([C@H]3C[C@@H]3c3ccc4cnn(CC(F)(F)F)c4c3F)c3nccn3n2)c(=O)[nH]1 [Example 594, 5-(8-((1S,2S)-2-(7-fluoro-1-(2,2,2-trifluoroethyl)-1H-indazol-6-yl)cyclopropyl)imidazo[1,2-b]pyridazin-6-yl)pyrimidine-2,4(1H,3H)-dione] | 0.12 nM | 0.58 nM
O=c1[nH]cc(-c2cc([C@H]3C[C@@H]3c3cc4c(cnn4CC(F)(F)F)cc3F)c3nccn3n2)c(=O)[nH]1 [Example 595, 5-(8-((1S,2S)-2-(5-fluoro-1-(2,2,2-trifluoroethyl)-1H-indazol-6-yl)cyclopropyl)imidazo[1,2-b]pyridazin-6-yl)pyrimidine-2,4(1H,3H)-dione] | 0.52 nM | 1.27 nM
O=c1[nH]cc(-c2cc([C@H]3C[C@@H]3c3ccc4c(C(F)(F)F)nn(CC(F)(F)F)c4c3)c3nccn3n2)c(=O)[nH]1 [Example 607, 5-(8-((1S,2S)-2-(1-(2,2,2-trifluoroethyl)-3-(trifluoromethyl)-1H-indazol-6-yl)cyclopropyl)imidazo[1,2-b]pyridazin-6-yl)pyrimidine-2,4(1H,3H)-dione] | 0.23 nM | 0.9 nM
O=c1[nH]cc(-c2cc([C@H]3C[C@@H]3c3ccc4cnn(CC(F)(F)F)c4n3)c3ncc(F)n3n2)c(=O)[nH]1 [Example 610, 5-(3-fluoro-8-((1S,2S)-2-(1-(2,2,2-trifluoroethyl)-1H-pyrazolo[3,4-b]pyridin-6-yl)cyclopropyl)imidazo[1,2-b]pyridazin-6-yl)pyrimidine-2,4(1H,3H)-dione] | 0.23 nM | 0.37 nM
O=c1[nH]cc(-c2cc([C@@H]3C[C@H]3c3cc4c(cn3)cnn4CC(F)(F)F)c3ncc(F)n3n2)c(=O)[nH]1 [Example 612, 5-(3-fluoro-8-((1R,2R)-2-(1-(2,2,2-trifluoroethyl)-1H-pyrazolo[4,3-c]pyridin-6-yl)cyclopropyl)imidazo[1,2-b]pyridazin-6-yl)pyrimidine-2,4(1H,3H)-dione] | 1.02 nM | 6.06 nM
O=c1[nH]cc(-c2cc([C@H]3C[C@@H]3c3cc(F)c4cnn(CC(F)(F)F)c4c3)c3ncc(F)n3n2)c(=O)[nH]1 [Example 618, 5-(3-fluoro-8-((1S,2S)-2-(4-fluoro-1-(2,2,2-trifluoroethyl)-1H-indazol-6-yl)cyclopropyl)imidazo[1,2-b]pyridazin-6-yl)pyrimidine-2,4(1H,3H)-dione] | 0.13 nM | 0.34 nM
O=c1[nH]cc(-c2cc([C@H]3C[C@@H]3c3ccc4nc(C(F)(F)F)n(CC(F)(F)F)c4c3)c3nccn3n2)c(=O)[nH]1 [Example 620, 5-(8-((1S,2S)-2-(1-(2,2,2-trifluoroethyl)-2-(trifluoromethyl)-1H-benzo[d]imidazol-6-yl)cyclopropyl)imidazo[1,2-b]pyridazin-6-yl)pyrimidine-2,4(1H,3H)-dione] | 0.07 nM | 1.22 nM
O=c1[nH]cc(-c2cc([C@H]3C[C@@H]3c3cnc4cnn(CC(F)(F)F)c4c3)c3ncc(F)n3n2)c(=O)[nH]1 [Example 628, 5-(3-fluoro-8-((1S,2S)-2-(1-(2,2,2-trifluoroethyl)-1H-pyrazolo[4,3-b]pyridin-6-yl)cyclopropyl)imidazo[1,2-b]pyridazin-6-yl)pyrimidine-2,4(1H,3H)-dione] | 0.23 nM | 0.73 nM
O=c1[nH]cc(-c2cc([C@H]3C[C@@H]3c3ccc4cnn(CC(F)(F)F)c4c3F)c3ncnn3n2)c(=O)[nH]1 [Example 629, 5-(8-((1S,2S)-2-(7-fluoro-1-(2,2,2-trifluoroethyl)-1H-indazol-6-yl)cyclopropyl)-[1,2,4]triazolo[1,5-b]pyridazin-6-yl)pyrimidine-2,4(1H,3H)-dione] | 0.05 nM | 0.2 nM

Continued, values first:

EC50 (CD73 [1]) | IC50 (CD73 [2]) | Compound
93.9 nM | 25.3 nM | COCC1(C)CCN(c2cc(-c3c[nH]c(=O)[nH]c3=O)nn3ccnc23)C1 (stereo not drawn) [Example 572, 5-(8-(3-(methoxymethyl)-3-methylpyrrolidin-1-yl)imidazo[1,2-b]pyridazin-6-yl)pyrimidine-2,4(1H,3H)-dione]
81.2 nM | 19.6 nM | O=c1[nH]cc(-c2cc(N3CCC(C4CC4)C3)c3nccn3n2)c(=O)[nH]1 (stereo not drawn) [Example 577, 5-(8-(3-cyclopropylpyrrolidin-1-yl)imidazo[1,2-b]pyridazin-6-yl)pyrimidine-2,4(1H,3H)-dione]
1870 nM | 161 nM | O=c1[nH]cc(-c2cc(N3CCC(C4CC(F)(F)C4)C3)c3nccn3n2)c(=O)[nH]1 (stereo not drawn) [Example 578, 5-(8-(3-(3,3-difluorocyclobutyl)pyrrolidin-1-yl)imidazo[1,2-b]pyridazin-6-yl)pyrimidine-2,4(1H,3H)-dione]
1.9 nM | 0.69 nM | O=c1[nH]cc(-c2cc([C@H]3C[C@@H]3c3ccc(Cl)cn3)c3nccn3n2)c(=O)[nH]1 [Example 585, 5-(8-((1S,2S)-2-(5-chloropyridin-2-yl)cyclopropyl)imidazo[1,2-b]pyridazin-6-yl)pyrimidine-2,4(1H,3H)-dione]
2.94 nM | 0.85 nM | O=c1[nH]cc(-c2cc([C@H]3C[C@@H]3c3ncc(Cl)cc3F)c3nccn3n2)c(=O)[nH]1 [Example 586, 5-(8-((1S,2S)-2-(5-chloro-3-fluoropyridin-2-yl)cyclopropyl)imidazo[1,2-b]pyridazin-6-yl)pyrimidine-2,4(1H,3H)-dione]
66.1 nM | 23.3 nM | O=c1[nH]cc(-c2cc(N3CCC4(CCC(F)(F)CC4)C3)c3nccn3n2)c(=O)[nH]1 [Example 587, 5-(8-(8,8-difluoro-2-azaspiro[4.5]decan-2-yl)imidazo[1,2-b]pyridazin-6-yl)pyrimidine-2,4(1H,3H)-dione]
774 nM | 96.2 nM | O=c1[nH]cc(-c2cc(N3CCC(Cn4ccnn4)C3)c3nccn3n2)c(=O)[nH]1 (stereo not drawn) [Example 592, 5-(8-(3-((1H-1,2,3-triazol-1-yl)methyl)pyrrolidin-1-yl)imidazo[1,2-b]pyridazin-6-yl)pyrimidine-2,4(1H,3H)-dione]
33 nM | 7.24 nM | C#CCC1CCN(c2cc(-c3c[nH]c(=O)[nH]c3=O)nn3ccnc23)C1 (stereo not drawn) [Example 593, 5-(8-(3-(prop-2-yn-1-yl)pyrrolidin-1-yl)imidazo[1,2-b]pyridazin-6-yl)pyrimidine-2,4(1H,3H)-dione]
0.14 nM | 0.7 nM | O=c1[nH]cc(-c2cc([C@H]3C[C@@H]3c3cc(F)c4cnn(CC(F)(F)F)c4c3)c3nccn3n2)c(=O)[nH]1 [Example 596, 5-(8-((1S,2S)-2-(4-fluoro-1-(2,2,2-trifluoroethyl)-1H-indazol-6-yl)cyclopropyl)imidazo[1,2-b]pyridazin-6-yl)pyrimidine-2,4(1H,3H)-dione]
0.22 nM | 0.78 nM | CC(n1ncc2ccc([C@H]3C[C@@H]3c3cc(-c4c[nH]c(=O)[nH]c4=O)nn4ccnc34)cc21)C(F)(F)F (stereo partly drawn) [Example 617, 5-(8-((1S,2S)-2-(1-(1,1,1-trifluoropropan-2-yl)-1H-indazol-6-yl)cyclopropyl)imidazo[1,2-b]pyridazin-6-yl)pyrimidine-2,4(1H,3H)-dione]
7.08 nM | 1.55 nM | O=c1[nH]cc(-c2cc([C@H]3C[C@@H]3c3ccc(Cl)cc3)c3nccn3n2)c(=O)[nH]1 [Example 633, 5-(8-((1S,2S)-2-(4-chlorophenyl)cyclopropyl)imidazo[1,2-b]pyridazin-6-yl)pyrimidine-2,4(1H,3H)-dione]
39 nM | 5.19 nM | O=c1[nH]cc(-c2cc([C@@H]3C[C@H]3c3ccc(Cl)cc3)c3nccn3n2)c(=O)[nH]1 [Example 634, 5-(8-((1R,2R)-2-(4-chlorophenyl)cyclopropyl)imidazo[1,2-b]pyridazin-6-yl)pyrimidine-2,4(1H,3H)-dione]
2.75 nM | 2.08 nM | O=c1[nH]cc(-c2cc([C@H]3C[C@@H]3c3ncc(C(F)(F)F)cc3F)c3nccn3n2)c(=O)[nH]1 [Example 635, 5-(8-((1S,2S)-2-(3-fluoro-5-(trifluoromethyl)pyridin-2-yl)cyclopropyl)imidazo[1,2-b]pyridazin-6-yl)pyrimidine-2,4(1H,3H)-dione]
0.13 nM | 0.34 nM | O=c1[nH]cc(-c2cc([C@H]3C[C@@H]3c3cc4c(cn3)cnn4CC(F)(F)F)c3nccn3n2)c(=O)[nH]1 [Example 636, 5-(8-((1S,2S)-2-(1-(2,2,2-trifluoroethyl)-1H-pyrazolo[4,3-c]pyridin-6-yl)cyclopropyl)imidazo[1,2-b]pyridazin-6-yl)pyrimidine-2,4(1H,3H)-dione]

— patent US20240043427A1 (Gilead Sciences, Inc., priority 2020, published 2024)
